Results reported in patent EP2712863B1, “Novel inhibitors of bacterial biofilms and related methods” (Sequoia Sciences, Inc., priority 2012, dated 2014).
Values after ≈ are worked out from the molar mass of the structure shown. Like-named read-outs stand apart in the source and are kept apart here.

What was measured:
[1] = system: P. aeruginosa; test: Biofilm growth assay (spreading biofilm on semi-solid agar); format: cell-based; set-up: P. aeruginosa (n=10): unit not given here; conditions: for P. aeruginosa (n=10): Table 6, inhibitory concentration in the biofilm growth assay, n = number of isolates tested; for IC85: Pseudomonas aeruginosa
[2] = system: Salmonella spp.; test: Biofilm growth assay, multiple isolates; format: cell-based; conditions: Table 6; inhibitory concentration in the biofilm growth assay; n = number of isolates tested
Procedure: (§1) The biofilm growth assay was carried out to measure swarming or biofilm spreading on semi-solid agar media in round plates (for example, 100 × 15 mm), also referred to as Petri dishes. For E. coli, the plates contained LB medium with 0.6% agar and 0.5% glucose. P. aeruginosa plates were made with M8 agar supplemented with 0.2% glucose, 100 µM CaCl2, 1 mM MgSO4, and 0.5% Casamino acids. The agar plates of this assay consisted of 0.4% to 0.7% agar (Bacto or Noble agar), although other media may also be used as described in the literature and known to those skilled in the art. Test compounds at the desired concentration were added to the cooled, autoclaved media. Portions of the media were then poured into the plates (20 mL/plate), and the plates allowed to dry at room temperature for approximately 3 to 4 hours. Alternatively, however, plates may be dried in a laminar flow hood for approximately fifteen to twenty minutes. Overnight cultures were grown in a 37°C shaker in LB (E. coli) or TSB (P. aeruginosa). Plates were inoculated by placing 5 µL of the appropriate overnight culture in the centers of the plates. The plates then were incubated overnight at 37°C. The area of the zone of spreading bacteria was then measured and replicates are averaged. Percent inhibition was calculated as 100 × (area without compound - area with compound)/(area without compound). An active compound was considered that which reduces the area of the spreading biofilm compared to negative controls by greater than or equal to 85%. The values shown in Table 1 are the concentrations of compounds (µg/ml) tested in the biofilm growth assay that reduce the area of the spreading biofilm compared to negative controls by greater than or equal to 85% unless noted differently in Table 1. A > ("greater than" symbol) as used in Table 1 is well understood to those skilled in the art as an indication that the listed concentration was not effective at this concentration.
(§2) Table 6, below, lists the inhibitory concentrations of select compounds and antibiotics in the biofilm growth assay against various gram-negative bacterial biofilms. "N" means the number of isolates of bacteria tested. The biofilm growth assay procedure detailed in Example I, above, was followed. Burkholderia cepacia used media consisting of M9 salts, 100 µM CaCl2, 1 mM MgS04, and 0.7% citrate in 0.4% Noble agar. Salmonella spp. used media consisting of Nutrient Broth with 0.5% glucose in 0.5% Noble agar.

[3] = system: Burkholderia cepacia; test: Biofilm growth assay, multiple isolates; format: cell-based; conditions: Table 6; inhibitory concentration in the biofilm growth assay; n = number of isolates tested
Procedure: as §1, §2

[4] = system: E. coli; test: Biofilm growth assay (spreading biofilm on semi-solid agar); format: cell-based; set-up: E. coli (n=10): unit: ug/mL; conditions: for E. coli (n=10): Table 6, inhibitory concentration in the biofilm growth assay, n = number of isolates tested; for IC85: Escherichia coli
Outline: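 Spreading (swarming) biofilm on semi-solid agar: E. coli on LB with 0.6% agar and 0.5% glucose; P. aeruginosa on M8 agar with 0.2% glucose, 100 µM CaCl2, 1 mM MgSO4, 0.5% Casamino acids. Compound in medium; 5 µL overnight culture spotted centrally, 37°C overnight. Value: concentration (µg/ml) giving ≥85% reduction in spread area versus negative control.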

[5] = Bioavailability in mice (serum level after oral or IP administration); format: in vivo; conditions: orally or via IP injection at approximately 20 mg/kg to 50 mg/kg; 30 minutes or 1 hour after administration
Procedure: The bioavailabilities of certain compounds were examined in mice. Administration of the compounds was performed orally and by intraperitoneal (IP) injection using a vehicle as known to those skilled in the art. Many vehicles can be used to examine bioavailability. Prior to administration, each vehicle was optimized based on compound solubility according to the formulation research conducted by Uckun et al. (Arznelmittel-Forschung (Drug Research) 2007; 57(4):218-226). […] The concentration of PEG400 is modulated depending upon solubility of the compounds and the amount of aqueous phase added (0.02 M citrate and 0.9% NaCl).

[6] = Evaluation of salts; format: physicochemical
Procedure: Evaluation of Compound 62 (Table 4) salt formation was performed. […] As stated herein, the invention also includes compounds and their salts. Evaluation of Compound 64 (Table 4) salt formation was performed. HCl (mono and bis), p-TSA (bis), BSA (bis), MSA (bis), H2SO4 (mono), and H3PO4 (mono) provided salts with crystallinity. […] As stated herein, the invention also includes compounds and their salts.

[7] = Table 4, concentration that reduces the area of the spreading biofilm by >= 85%, read-out: E. coli
[8] = Table 4, concentration that reduces the area of the spreading biofilm by >= 85%, read-out: P. aeruginosa
[9] = Table 1, concentration that reduces the area of the spreading biofilm vs negative controls by >= 85%, > means not effective at this concentration, read-out: E. coli
[10] = Table 1, concentration that reduces the area of the spreading biofilm vs negative controls by >= 85%, > means not effective at this concentration, read-out: P. aeruginosa

CC[C@H]1OC(=O)[C@H](C)[C@@H](O[C@H]2C[C@@](C)(OC)[C@@H](O)[C@H](C)O2)[C@H](C)[C@@H](O[C@@H]2O[C@H](C)C[C@H](N(C)C)[C@H]2O)[C@](C)(O)C[C@@H](C)CN(C)[C@H](C)[C@@H](O)[C@]1(C)O [Azithromycin, azithromycin]
P. aeruginosa (n=10) [1]: > 16 | inhibitory concentration in biofilm growth assay [2]: > 16 | inhibitory concentration [3]: > 16

CC(C)(O/N=C(\C(=O)N[C@@H]1C(=O)N2C(C(=O)[O-])=C(C[n+]3ccccc3)CS[C@H]12)c1csc(N)n1)C(=O)O [Ceftazidime, ceftazidime, reference compound]
E. coli (n=10) [4]: 0.25 | P. aeruginosa (n=10) [1]: 4 | inhibitory concentration in biofilm growth assay [2]: 0.5 | inhibitory concentration [3]: > 8

CC1(C)CC[C@]2(C(=O)O)CC[C@]3(C)C(=C(c4cccnc4)CC4[C@@]5(C)Cc6c(n[nH]c6N)C(C)(C)[C@@H]5CC[C@]43C)[C@@H]2C1 (stereo partly drawn) [Compound 12, (4aS,6aS,6bR,8aR,13aR,15bS)-12-Amino-2,2,6a,6b,9,9,13a-heptamethyl-15-(pyridin-3-yl)-2,3,4,4a,5,6,6a,6b,7,8,8a,9,11,13,13a,13b,14,15b-octadecahydro-1H-chryseno[1,2-f]indazole-4a-carboxylic acid]
concentration in the serum of mice [5]: > 5 µg/mL | IC85 ([4]; Table 2, concentration that reduces the area of the spreading biofilm by >= 85%, read-out: E. coli): 1 µg/mL (≈ 1.75 µM) | IC85 ([1]; Table 2, concentration that reduces the area of the spreading biofilm by >= 85%, read-out: P. aeruginosa): 0.5 µg/mL (≈ 0.876 µM)

CC1(C)CC[C@]2(C(N)=O)CC[C@]3(C)C(=CCC4[C@@]5(C)Cc6c(n[nH]c6N)C(C)(C)C5CC[C@]43C)C2C1 (stereo partly drawn) [Compound 62, (4aS,6aS,6bR,13aR)-12-Amino-2,2,6a,6b,9,9,13a-heptamethyl-2,3,4,4a,5,6,6a,6b,7,8,8a,9,11,13,13a,13b,14,15b-octadecahydro-1H-chryseno[1,2-f]indazole-4a-carboxamide]
IC85 [4, 7]: 1 µg/mL (≈ 2.03 µM) | IC85 [1, 8]: 1 µg/mL (≈ 2.03 µM) | physical properties compared to freebase ([6]; p-toluenesulfonic acid (mono) and H3PO4 (bis) salts): most desirable physical properties

CN(C)C[C@]12CCC(C)(C)CC1C1=CCC3[C@@]4(C)Cc5c(n[nH]c5N)C(C)(C)C4CC[C@@]3(C)[C@]1(C)CC2 (stereo partly drawn) [Compound 64, (4aS,6aS,6bR,13aR)-4a-((Dimethylamino)methyl)-2,2,6a,6b,9,9,13a-heptamethyl-2,3,4,4a,5,6,6a,6b,7,8,8a,9,11,13,13a,13b,14,15b-octadecahydro-1H-chryseno[1,2-f]indazol-12-amine]
concentration in the serum of mice [5]: > 5 µg/mL | IC85 [4, 7]: 1 µg/mL (≈ 1.97 µM) | IC85 [1, 8]: 0.5 µg/mL (≈ 0.987 µM) | aqueous solubility compared to freebase ([6]; Bis-MSA and mono-H3PO4 salts): increased aqueous solubility

CC1(C)CC[C@]2(c3cc(O)[nH]n3)CC[C@]3(C)C(=CCC4[C@@]5(C)Cc6c(n[nH]c6N)C(C)(C)C5CC[C@]43C)C2C1 (stereo partly drawn) [Compound 68, 3-((4aS,6aS,6bR,13aR)-12-Amino-2,2,6a,6b,9,9,13a-heptamethyl-2,3,4,4a,5,6,6a,6b,7,8,8a,9,11,13,13a,13b,14,15b-octadecahydro-1H-chryseno[1,2-f]indazol-4a-yl)-1H-pyrazol-5-ol]
concentration in the serum of mice [5]: > 5 µg/mL | IC85 ([4]; read-out: E. coli (µg/ml)): 0.5 µg/mL (≈ 0.94 µM) | IC85 ([1]; read-out: P. aeruginosa (µg/ml)): 0.5 µg/mL (≈ 0.94 µM)

Cn1cc2c(n1)C(C)(C)C1CC[C@]3(C)C(CC=C4C5CC(C)(C)CC[C@]5(C(=O)O)CC[C@]43C)[C@@]1(C)C2 (stereo partly shown) [E]
IC85 [4, 9]: > 16 µg/mL | IC85 [1, 10]: 2 µg/mL (≈ 4.06 µM)

CC1(C)CC[C@]2(C(=O)O)CC[C@]3(C)C(=CCC4[C@@]5(C)Cc6c(n[nH]c6Br)C(C)(C)C5CC[C@]43C)C2C1 (stereo partly shown) [H]
IC85 [4, 9]: > 8 µg/mL | IC85 [1, 10]: 8 µg/mL (≈ 14.3 µM)

CC1(C)CC[C@]2(C(=O)O)CC[C@]3(C)C(=CC[C@@H]4[C@@]5(C)Cc6c(noc6N)C(C)(C)[C@@H]5CC[C@]43C)[C@@H]2C1 [K]
IC85 [4, 9]: > 8 µg/mL | IC85 [1, 10]: > 8 µg/mL

CC1(C)CC[C@]2(C(=O)O)CC[C@]3(C)[C@H](C(=O)C=C4[C@@]5(C)C=C(C#N)C(=O)C(C)(C)[C@@H]5CC[C@]43C)[C@@H]2C1 [L]
IC85 [4, 9]: > 16 µg/mL | IC85 [1, 10]: > 16 µg/mL

C=C(C)[C@@H]1CC[C@]2(C)CC[C@]3(C)[C@H](CC[C@@H]4[C@@]5(C)CC[C@H](O)C(C)(C)[C@@H]5CC[C@]43C)[C@@H]12 [Lupeol, reference compound]
IC85 [4, 9]: > 8 µg/mL | IC85 [1, 10]: > 16 µg/mL

COC(=O)[C@]12CCC(C)(C)CC1C1=CCC3[C@@]4(C)CC[C@H](O)C(C)(C)C4CC[C@@]3(C)[C@]1(C)CC2 (stereo partly shown) [Oleanolic acid methyl ester, reference compound]
IC85 [4, 9]: > 16 µg/mL | IC85 [1, 10]: > 16 µg/mL

CC1(C)CC[C@]2(C(=O)O)CC[C@]3(C)C(=CC[C@@H]4[C@@]5(C)CC[C@H](O)C(C)(C)[C@@H]5CC[C@]43C)[C@@H]2C1 [Oleanolic acid, reference compound]
IC85 [4, 9]: > 8 µg/mL | E. coli (n=10) [4]: 16 | IC85 [1, 10]: 4 µg/mL (≈ 8.76 µM) | P. aeruginosa (n=10) [1]: 8 | inhibitory concentration in biofilm growth assay [2]: > 64 | inhibitory concentration [3]: 0.5

NC[C@H]1O[C@H](O[C@H]2[C@H](O)[C@@H](O[C@H]3O[C@H](CO)[C@@H](O)[C@H](N)[C@H]3O)[C@H](N)C[C@@H]2N)[C@H](N)C[C@@H]1O [Tobramycin, tobramcyin, reference compound]
E. coli (n=10) [4]: 16 | P. aeruginosa (n=10) [1]: 4 | inhibitory concentration in biofilm growth assay [2]: 8 | inhibitory concentration [3]: > 64

C[C@H]1[C@H](C)CC[C@]2(C(=O)O)CC[C@]3(C)C(=CC[C@@H]4[C@@]5(C)CC[C@H](O)C(C)(C)[C@@H]5CC[C@]43C)[C@H]12 [Ursolic acid, reference compound]
IC85 [4, 9]: 8 µg/mL (≈ 17.5 µM) | IC85 [1, 10]: 8 µg/mL (≈ 17.5 µM)

C[C@H]1[C@H](C)CC[C@]2(CO)CC[C@]3(C)C(=CC[C@@H]4[C@@]5(C)CC[C@H](O)C(C)(C)[C@@H]5CC[C@]43C)[C@H]12 [Uvaol, reference compound]
IC85 [4, 9]: > 8 µg/mL | IC85 [1, 10]: > 128 µg/mL
